Earlier results as cited in publication PMC6838683, “Discovery of Human Signaling Systems: Pairing Peptides to G Protein-Coupled Receptors” (Cell, 2019).
Read-outs that look alike come from different tables or passages of the source.

Test system: human GPCRs
Parameters: method as in Guide to Pharmacology database
Conditions: max reported value, ref Guide to Pharmacology database, cited from earlier work
Excerpt: Supplement mmc1.xlsx, sheet "HumanGPCRLigands" | column: pKi_value; pKd_value; pEC50_value; pIC50_value

[1] = receptor p2ry2_human (P2RY2), P2Y receptors
[2] = receptor p2ry4_human (P2RY4), P2Y receptors
[3] = receptor p2y11_human (P2RY11), P2Y receptors
[4] = receptor gp183_human (GPR183), Class A orphans
[5] = receptor LTB4R2 (lt4r2_human, Q9NPC1)
[6] = receptor LTB4R (lt4r1_human, Q15722)
[7] = receptor p2ry1_human (P2RY1), P2Y receptors
[8] = receptor p2y13_human (P2RY13), P2Y receptors
[9] = receptor grm2_human (GRM2, Q14416)
[10] = receptor grm3_human (GRM3, Q14832)
[11] = receptor grm7_human (GRM7, Q14831)
[12] = receptor grm8_human (GRM8, O00222)
[13] = receptor CYSLTR1 (cltr1_human, Q9Y271)
[14] = receptor CYSLTR2 (cltr2_human, Q9NS75)
[15] = receptor fpr2_human (FPR2, P25090)
[16] = receptor PTAFR (ptafr_human, P25105)
[17] = receptor PTGDR2 (pd2r2_human, Q9Y5Y4)
[18] = receptor PTGDR (pd2r_human, Q13258)
[19] = receptor pe2r2_human (PTGER2), Prostanoid receptors
[20] = receptor pe2r4_human (PTGER4), Prostanoid receptors
[21] = receptor pf2r_human (PTGFR), Prostanoid receptors
[22] = receptor pe2r1_human (PTGER1), Prostanoid receptors
[23] = receptor pe2r3_human (PTGER3), Prostanoid receptors
[24] = receptor ta2r_human (TBXA2R), Prostanoid receptors

O=c1ccn([C@@H]2O[C@H](CO[P@@](=O)(O)O[P@@](=O)(O)OP(=O)(O)O)[C@@H](O)[C@H]2O)c(=O)[nH]1 (stereo in doubt) [uridine triphosphate]
pEC50_value [1]: 8.1 | pEC50_value [2]: 6.3 | pEC50_value (receptor p2ry6_human (P2RY6), P2Y receptors): 5.2 | pEC50_value [3]: 5.2

CCCCCC(O)CC(=O)O (stereo not drawn) [3-hydroxyoctanoic acid]
pEC50_value (receptor hcar3_human (HCAR3), Hydroxycarboxylic acid receptors): 5.1

CCCCCCCC/C=C\C/C=C\C=C/C(=O)CCCC(=O)O [5-oxo-C20:3]
pEC50_value (receptor OXER1 (oxer1_human, Q8TDS5)): 8

C[C@H](CCCC(C)(C)O)[C@H]1CC[C@H]2[C@@H]3[C@H](O)C=C4C[C@@H](O)CC[C@]4(C)[C@H]3CC[C@]12C [7α,25-dihydroxycholesterol]
pEC50_value [4]: 9.9 | pIC50_value [4]: 9.6

CCCCCC(O)C=CC=CCC=CCCCC(=O)O (stereo not drawn) [12-hydroxyheptadecatrienoic acid]
pEC50_value [5]: 7.7 | pIC50_value [5]: 8.6

C[C@]12CC[C@@H]3c4ccc(O)cc4CC[C@H]3[C@@H]1CC[C@@H]2O [17β-estradiol]
pKi_value (receptor gper1_human (GPER1), Estrogen (G protein-coupled) receptors): 8.5

O=C(O)CCC[C@H](O)\C=C/C=C/C=C/[C@H](O)C/C=C\CCCCCO [20-hydroxy-LTB4]
pKi_value [6]: 8.1

NC[C@H](O)c1ccc(O)c(O)c1 [(-)-noradrenaline]
pKi_value (receptor ada1a_human (ADRA1A, P35348)): 6.4 | pKi_value (receptor ada1b_human (ADRA1B, P35368)): 6.2 | pKi_value (receptor ada1d_human (ADRA1D, P25100)): 7.4 | pKi_value (receptor ada2a_human (ADRA2A, P08913)): 7.4 | pKi_value (receptor ada2b_human (ADRA2B, P18089)): 6 | pKi_value (receptor ada2c_human (ADRA2C, P18825)): 6.8 | pKi_value (receptor adrb1_human (ADRB1, P08588)): 6 | pKi_value (receptor adrb2_human (ADRB2, P07550)): 4.8 | pKi_value (receptor adrb3_human (ADRB3, P13945)): 6.3

Nc1ncnc2c1ncn2[C@@H]1O[C@H](COP(=O)(O)OP(=O)(O)O)[C@@H](O)[C@H]1O [ADP]
pIC50_value [7]: 7.2 | pKi_value (receptor p2y12_human (P2RY12), P2Y receptors): 5.9 | pIC50_value [8]: 6.5

Nc1ncnc2c1ncn2[C@@H]1O[C@H](COP(=O)(O)OP(=O)(O)OP(=O)(O)O)[C@@H](O)[C@H]1O [ATP]
pIC50_value [7]: 7.8 | pKi_value [7]: 4.8 | pEC50_value [1]: 7.1 | pEC50_value [2]: 5.4 | pKd_value [2]: 6.2 | pEC50_value [3]: 5.6 | pIC50_value [8]: 5.4

N[C@@H](CCC(=O)O)C(=O)O [L-glutamic acid]
pEC50_value (receptor grm1_human (GRM1, Q13255)): 5 | pEC50_value [9]: 5.4 | pKi_value [9]: 4.9 | pEC50_value [10]: 5.4 | pKi_value [10]: 7.4 | pEC50_value (receptor grm4_human (GRM4, Q14833)): 5.5 | pEC50_value (receptor grm5_human (GRM5, P41594)): 5.5 | pEC50_value (receptor grm6_human (GRM6, O15303)): 5.2 | pEC50_value [11]: 3 | pKi_value [11]: 3.1 | pEC50_value [12]: 5.6 | pIC50_value [12]: 5.7

C[C@H](O)C(=O)O [L-lactic acid]
pEC50_value (receptor hcar1_human (HCAR1), Hydroxycarboxylic acid receptors): 2.9

CCCCC/C=C\C[C@@H](O)/C=C/C=C/C=C\[C@@H](O)CCCC(=O)O [LTB4]
pEC50_value [5]: 6.8 | pIC50_value [5]: 7.6 | pKd_value [5]: 7.6 | pKi_value [6]: 9.4

CCCCC/C=C\C\C=C/C=C/C=C/[C@@H](SC[C@H](NC(=O)CC[C@H](N)C(=O)O)C(=O)NCC(=O)O)[C@@H](O)CCCC(=O)O [LTC4]
pEC50_value [13]: 7.7 | pIC50_value [13]: 6.5 | pKi_value [13]: 8.1 | pEC50_value [14]: 7.3 | pIC50_value [14]: 8.5

CCCCC/C=C\C\C=C/C=C/C=C/[C@@H](SC[C@H](N)C(=O)NCC(=O)O)[C@@H](O)CCCC(=O)O [LTD4]
pEC50_value [13]: 8.5 | pIC50_value [13]: 8.1 | pEC50_value [14]: 7.4 | pIC50_value [14]: 8.1 | pKi_value [14]: 8.1

CCCCC/C=C\C\C=C/C=C/C=C/[C@@H](SC[C@H](N)C(=O)O)[C@@H](O)CCCC(=O)O [LTE4]
pEC50_value [13]: 6.7 | pIC50_value [13]: 7 | pKi_value [13]: 7.8 | pEC50_value [14]: 5.9 | pIC50_value [14]: 5.7 | pKi_value [14]: 6.5

CCCCC[C@H](O)/C=C/C=C\C=C\C=C\[C@@H](O)[C@@H](O)CCCC(=O)O [LXA4]
pEC50_value [15]: 12 | pKd_value [15]: 9.3

CCCCCCCC/C=C\CCCCCCCC(=O)NCCO [N-oleoylethanolamide]
pEC50_value (receptor GPR119 (gp119_human, Q8TDV5)): 6.3

CCCCCCCCCCCCCCCCOC[C@H](COP(=O)([O-])OCC[N+](C)(C)C)OC(C)=O [PAF]
pIC50_value [16]: 8.2 | pKi_value [16]: 7.9

CCCCC[C@H](O)/C=C/[C@H]1C(=O)C[C@H](O)[C@@H]1C/C=C\CCCC(=O)O [PGD2]
pKi_value [17]: 8.6 | pKi_value [18]: 9.2 | pKi_value (receptor PTGER1 (pe2r1_human, P34995)): 4.7 | pKi_value [19]: 5 | pEC50_value [20]: 8.8 | pKi_value [20]: 9 | pKi_value [21]: 7.7

CCCCC[C@H](O)/C=C/[C@H]1[C@H](O)CC(=O)[C@@H]1C/C=C\CCCC(=O)O [PGE2]
pKi_value [17]: 5.3 | pKi_value [18]: 7 | pKi_value [22]: 8 | pKi_value [19]: 8.3 | pKd_value [23]: 8.7 | pKi_value [23]: 9.5 | pEC50_value [20]: 6.1 | pKi_value [20]: 9.1 | pKi_value [21]: 6.9 | pKi_value [24]: 4.5

CCCCC[C@H](O)/C=C/[C@@H]1[C@@H](C/C=C\CCCC(=O)O)[C@@H](O)C[C@H]1O [PGF2α]
pKi_value [17]: 6.4 | pKi_value [18]: 6.4 | pKi_value [22]: 6.3 | pKi_value [19]: 6 | pKi_value [23]: 7.4 | pEC50_value [20]: 6.1 | pKi_value [20]: 9.5 | pKi_value [21]: 8.5 | pKi_value [24]: 5.1

CCCCC[C@H](O)/C=C/[C@@H]1[C@H]2C/C(=C/CCCC(=O)O)O[C@H]2C[C@H]1O [PGI2]
pKi_value [22]: 4.8 | pKi_value [20]: 5.1 | pKi_value (receptor pi2r_human (PTGIR), Prostanoid receptors): 7.8

CCCCC[C@H](O)/C=C/[C@H]1C(=O)C=C[C@@H]1C/C=C\CCCC(=O)O [PGJ2]
pKi_value [17]: 8.2 | pKi_value [18]: 9

CCCCC/C=C\C/C=C\C/C=C\C/C=C\CCCC(=O)OC(CO)CO [Peptide 2-arachidonoylglycerol]
pKi_value (receptor CNR2 (cnr2_human, P34972)): 6.8

CCCCCCCC/C=C\CCCCCCCC(=O)OC(CO)COP(=O)(O)O (stereo not drawn) [Peptide 2-oleoyl-LPA]
pEC50_value (receptor gpr35_human (GPR35), Class A orphans): 7.5
